Values of other authors in patent US20080286344A1, “Solid form” (priority 2007, published 2008).

## Cn1c(=O)c2[nH]cnc2n(C)c1=O [theophylline]
1 g active in stated g of water
  Solubility in water, g of water for 1 g: 100-1000 g water
water
  Solubility in water (descriptive term): slightly soluble
